Active and inactive are the calls of the source. How the calls were made is not given here. Residues, ends and D or L forms follow the SMILES beside them.

As usually defined, the Kd is the constant that tells how readily two partners part at equilibrium.

This assay deals with Ubiquitin-conjugating enzyme E2 N (Homo sapiens) (UniProt P61088). The assay can be described thus: NMR detection of UBE2N ligand binding – biophysical, purified protein (AID 1552). The settings on record: NMR binding to purified UBE2N.
Chain of Ubiquitin-conjugating enzyme E2 N (Homo sapiens) (P61088 whole entry, looked up): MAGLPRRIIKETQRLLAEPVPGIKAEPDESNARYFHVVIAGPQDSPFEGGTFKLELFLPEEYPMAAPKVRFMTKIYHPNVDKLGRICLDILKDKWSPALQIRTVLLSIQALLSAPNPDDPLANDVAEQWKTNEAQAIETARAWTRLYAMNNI
On to `Cn1ncc2c(=O)n(CC(=O)c3ccccc3)cnc21`, for which the Kd is > 4 mM (inactive).

Regarding `Cc1cc(=O)n(CC(C)C)c(O)c1C#N`, the Kd is > 4 mM (inactive).

On to `O=C(O)c1ccc(N2CCOCC2)nc1`, for which the Kd is > 4 mM (inactive).

For `Clc1ncc2[nH]cnc2n1`, the Kd is > 4 mM (inactive).

As for `O=C1OC(N2CCOCC2)c2ccccc21` (stereo unspecified), the Kd was > 4 mM (inactive).

Take `O=C1C2CC=CCC2C(=O)N1c1cccc(O)c1` (stereo unspecified): the Kd is > 4 mM (inactive).

Take `CC1CCN(C(=O)c2ccc(NS(C)(=O)=O)cc2)CC1`: the Kd is > 4 mM (inactive).

Consider `CN1CCC(N2CCN(C)CC2)CC1`, for which the Kd was > 4 mM (inactive).

Turning to `NC1=NC(=O)/C(=C/c2cccc([N+](=O)[O-])c2)S1`, the Kd is > 4 mM (inactive).

With `CN(C)c1oc(-c2ccccc2Cl)nc1C#N`, the Kd is > 4 mM (inactive).

For `C=C[C@](C)(O)CCC=C(C)C`, the Kd was > 4 mM (inactive).

Consider `O=C1C2C3C=CC(C3)C2C(=O)N1c1ccccn1` (stereo unspecified), for which the Kd is > 4 mM (inactive).

With `O=c1[nH]c(=S)c2c(n1-c1ccccc1)CCC2`, the Kd is > 4 mM (inactive).

Take `c1ccc(-c2n[nH]c(-c3ccccn3)n2)nc1`: the Kd was > 4 mM (inactive).

Turning to `CNC(=S)N1CCN=C1Nc1nc(C)cc(C)n1`, the Kd was > 4 mM (inactive).

`COc1ccc2cc3[n+](cc2c1OC)CCc1cc2c(cc1-3)OCO2`: the Kd is > 4 mM (inactive).

With `O=C(O)/C=C/c1ccc(O)c(O)c1`, the Kd was > 4 mM (inactive).

For `c1ccc(-n2ncc3c(NCc4ccco4)ncnc32)cc1`, the Kd was > 4 mM (inactive).

`NC(=O)CSc1nc2ccccc2c(=O)[nH]1`: the Kd was > 4 mM (inactive).

For `CCN1CC2(C)CC[C@H](OC)[C@]34C2[C@H](O)C2(OCO[C@@]25C[C@H](OC)[C@H]2C[C@]3(O)C5[C@H]2O)C14`, the Kd was > 4 mM (inactive).

Regarding `Cc1ccccc1NS(=O)(=O)c1ccc(F)cc1`, the Kd was > 4 mM (inactive).

For `Cc1nnc(SCc2ccc(F)cc2)s1`, the Kd is > 4 mM (inactive).

`CSc1ncc(C(=O)O)n1Cc1ccccc1`: the Kd was > 4 mM (inactive).

Regarding `Cn1c(SCC(N)=O)nc2ccccc2c1=O`, the Kd was > 4 mM (inactive).

As for `Cn1c(=O)n(CC(=O)N2CCOCC2)c2ccccc21`, the Kd is > 4 mM (inactive).

On to `N[C@@H](Cc1cc(I)c(Oc2cc(I)c(O)c(I)c2)c(I)c1)C(=O)O`, for which the Kd was > 4 mM (inactive).

Take `O=C1CC[C@]23/C=C/C(=O)NCCCCNCCCNC(=O)/C=C/c4ccc(c2c4)O[C@@H]3C1`: the Kd was > 4 mM (inactive).

`CCN1CCC(NC2CCC(O)CC2)CC1` (stereo unspecified): the Kd is > 4 mM (inactive).

Regarding `COC(=O)N(c1ccccc1)P1(=S)OCCO1`, the Kd is > 4 mM (inactive).

Turning to `O=S1(=O)CCC(NC(=S)Nc2ccccn2)C1` (stereo unspecified), the Kd was > 4 mM (inactive).

Regarding `CC1(C)Oc2ccc3ccc(=O)oc3c2CC1O` (stereo unspecified), the Kd is > 4 mM (inactive).

In the case of `O=C(O)C1CSC(c2cccnc2)N1` (stereo unspecified), the Kd is > 4 mM (inactive).

Consider `Nc1nc(-c2ccncc2)cs1`, for which the Kd was > 4 mM (inactive).

With `Nc1cccc(NC(=O)c2cccs2)c1`, the Kd was > 4 mM (inactive).

Take `CC(=O)N1CCN(C2CCSC2)CC1` (stereo unspecified): the Kd is > 4 mM (inactive).

Turning to `O=c1cc(O)n(-c2ccc(F)cc2)c(=S)[nH]1`, the Kd was > 4 mM (inactive).

As to `CCN1CCn2c1nc(N1CCOCC1)nc2=O`, the Kd is > 4 mM (inactive).

As for `O=c1n(-c2cccc(Cl)c2)c(=O)n2n1CCC2`, the Kd is > 4 mM (inactive).

Regarding `Cc1cc(C)n(CC(=O)NC2CCCCC2)n1`, the Kd is > 4 mM (inactive).

Regarding `C[C@@H]1C(=O)O[C@H]2[C@H]1CC[C@@]1(C)C=CC(=O)[C@@]3(C)O[C@@]213`, the Kd is > 4 mM (inactive).

In the case of `COC(=O)c1cncc(C(=O)OC)c1`, the Kd is > 4 mM (inactive).

Consider `O=C1CN(C(=O)CN2CCOCC2)c2ccccc2N1`, for which the Kd was > 4 mM (inactive).

On to `O=C(O)c1cccc(CSc2ncccn2)c1`, for which the Kd was > 4 mM (inactive).

For the molecule `Cc1nc2ccccc2c2c1C(=O)N(C)C2=O`, the Kd is > 4 mM (inactive).

As to `CCOc1cc(C)c(Cl)cc1S(=O)(=O)N(C)C`, the Kd is > 4 mM (inactive).

Regarding `CC(=O)CNc1cc(CNC(C)=O)c(C)cc1C`, the Kd was > 4 mM (inactive).

`O=C(NCc1cccnc1)c1ccccn1`: the Kd was > 4 mM (inactive).

Regarding `O=C(O)c1cccc(N2C(=O)C3CC=CCC3C2=O)c1` (stereo unspecified), the Kd is > 4 mM (inactive).

For the molecule `O=C(/C=C/c1ccccc1)c1ccc(O[C@@H]2O[C@H](CO)[C@@H](O)[C@H](O)[C@H]2O)cc1O`, the Kd is > 4 mM (inactive).

With `Nc1cccc(S(=O)(=O)N2CCCCC2)c1`, the Kd is > 4 mM (inactive).

Take `Cc1cc(C)nc(/N=C(/N)Nc2cccc(F)c2)n1`: the Kd is > 4 mM (inactive).

With `Oc1ccc2c(c1)OCC1(O)Cc3cc(O)c(O)cc3C21` (stereo unspecified), the Kd was > 4 mM (inactive).

Consider `Cc1occc1C(=O)Nc1nnc(-c2ccncc2)s1`, for which the Kd was > 4 mM (inactive).

Regarding `Cc1n[nH]c(C)c1N`, the Kd was > 4 mM (inactive).

Regarding `COc1c2ccoc2cc2oc(C)cc(=O)c12`, the Kd was > 4 mM (inactive).

Take `Cc1cccc(C)c1NC(=O)CN1CCOCC1`: the Kd was > 4 mM (inactive).

Regarding `O/N=C1/CCCc2nonc21`, the Kd was > 4 mM (inactive).

As for `NCc1ccc2c(c1)CCO2`, the Kd was > 4 mM (inactive).

Consider `COc1c(-c2ccccc2)oc2c(OC)cccc2c1=O`, for which the Kd was > 4 mM (inactive).

`O=C(O)CCC(=O)Nc1nccs1`: the Kd is > 4 mM (inactive).

Consider `CSc1cc(C)[nH]c(=O)n1`, for which the Kd was > 4 mM (inactive).

On to `c1ccc(Cc2nnc(-c3ccccc3)o2)cc1`, for which the Kd is > 4 mM (inactive).

Regarding `Cc1cc(C(=O)N2CCN(c3ccccn3)CC2)no1`, the Kd is > 4 mM (inactive).

Regarding `CC(=O)N[C@@H](CC(=O)O)C(=O)N[C@@H](CCC(=O)O)C(=O)O` (Ac-Asp-Glu-OH), the Kd was > 4 mM (inactive).

Consider `COCc1cc(C)nc2sc(C(=O)OC)c(N)c12`, for which the Kd was > 4 mM (inactive).

As to `O=C1c2cccnc2C(=O)N1Cc1ccc2c(c1)OCO2`, the Kd was > 4 mM (inactive).

Regarding `[O-][n+]1onc2c1CCc1c-2nn(-c2ccccc2)[n+]1[O-]`, the Kd is > 4 mM (inactive).

Regarding `CCCOn1nnnc1-c1ccccc1`, the Kd is > 4 mM (inactive).

In the case of `O=C1C=CC(=O)N1c1ccc(N2CCOCC2)cc1`, the Kd was > 4 mM (inactive).

Consider `Cc1cccc(OCc2nnc(N)s2)c1`, for which the Kd was > 4 mM (inactive).

As to `CC(=O)Nc1ccc(C(=O)NC2=NCCS2)cc1`, the Kd is > 4 mM (inactive).

In the case of `O=S1(=O)CCC(Nc2ccccc2)C1` (stereo unspecified), the Kd is > 4 mM (inactive).

On to `CC(=O)Nc1ccc(NC(=O)c2ccncc2)cc1`, for which the Kd is > 4 mM (inactive).

Regarding `CC(=O)Oc1c(C)cc(O)c2ccccc12`, the Kd was > 4 mM (inactive).

With `N/N=C1\CCCc2c1no[n+]2[O-]`, the Kd was > 4 mM (inactive).

Consider `C/C=C(\C)C(=O)OC1[C@@H]2C=C3C(CC[C@]4(C)C3CC(=O)O[C@H]4c3ccoc3)C(C)(C2=O)[C@@H](C(O)C(=O)OC)C1(C)C` (stereo partly specified), for which the Kd was > 4 mM (inactive).

Turning to `O=C(O)c1onc2ccccc12`, the Kd was > 4 mM (inactive).

As to `COC(=O)CSc1nnc(-c2ccc(C(=O)O)cc2)o1`, the Kd was > 4 mM (inactive).

Take `O=C(O)c1ccc(NC(=O)c2cccs2)cc1`: the Kd was > 4 mM (inactive).

Regarding `Cc1nnsc1C(=O)Nc1ccccn1`, the Kd was > 4 mM (inactive).

Consider `Oc1ccc2c(c1)OCO2`, for which the Kd was > 4 mM (inactive).

Take `Cc1nn(-c2ccccc2)c(Cl)c1C(N)=O`: the Kd was > 4 mM (inactive).

As to `Cc1nc2ccc(F)cc2cc1C(=O)NCc1ccco1`, the Kd is > 4 mM (inactive).

With `NC(=O)c1cccc(Cl)n1`, the Kd was > 4 mM (inactive).

For the molecule `Cc1nc(-c2ccc(C(=O)N3CCOCC3)cc2)cs1`, the Kd was > 4 mM (inactive).

Consider `OCc1ccc(-n2cccn2)cc1`, for which the Kd is > 4 mM (inactive).

As to `O=C1NC(=Nc2ccc(O)cc2)S/C1=C/c1ccco1`, the Kd was > 4 mM (inactive).

As to `CN1CCc2c(sc(N)c2C#N)C1`, the Kd was > 4 mM (inactive).

On to `CC(C)=CCC/C(C)=C/CC/C(C)=C/CC/C(C)=C/CC/C(C)=C/CC/C(C)=C/CC/C(C)=C/CC/C(C)=C/CC/C(C)=C/CO`, for which the Kd is > 4 mM (inactive).

On to `O=c1/c(=C/c2cccs2)sc2ncnn12`, for which the Kd was > 4 mM (inactive).

As to `Cc1nn(-c2ccccc2)nc1CO`, the Kd is > 4 mM (inactive).

For `O=C(Nc1ccncc1)c1cncc(Br)c1`, the Kd was > 4 mM (inactive).

Consider `CCn1c2ccccc2c2nn(C)c(=N)nc21`, for which the Kd was > 4 mM (inactive).

`CC[C@@]1(O)C(=O)OCc2c1cc1n(c2=O)Cc2cc3ccccc3nc2-1`: the Kd was > 4 mM (inactive).

On to `Cc1nn(C)c(C)c1NC(=S)NC1CCCC1`, for which the Kd was > 4 mM (inactive).

For the molecule `O=C1C2C3C=CC(O3)C2C(=O)N1c1ccccc1` (stereo unspecified), the Kd was > 4 mM (inactive).

Take `COC(=O)C1=CO[C@@H](O[C@@H]2O[C@H](CO)[C@@H](O)[C@H](O)[C@H]2O)[C@@H]2[C@@H](C)[C@@H](O)C[C@H]12`: the Kd was > 4 mM (inactive).

Consider `CC(=O)N1CCc2ccccc2C1CC(=O)O` (stereo unspecified), for which the Kd was > 4 mM (inactive).

In the case of `CC1(C)C(=O)[C@@H]2C[C@@]3(O)C4=CC(=O)O[C@@H](c5ccoc5)[C@]4(C)CCC3C(C)(C2=O)[C@H]1CC(=O)O` (stereo partly specified), the Kd was > 4 mM (inactive).

Turning to `CC(CCC(=O)O)[C@H]1CCC2C3CC[C@@H]4C[C@H](O)CC[C@]4(C)C3C[C@H](O)[C@@]21C` (stereo partly specified), the Kd is > 4 mM (inactive).

As for `NC(=O)NC1NC(=O)NC1=O` (stereo unspecified), the Kd is > 4 mM (inactive).
